# Measured values taken from a melting point compilation (Tetko et al.; mined from patent text by program, amines drawn as free bases though some values may be those of a salt).
row,SMILES,melting point
1,COc1cc(-c2ncc(S(C)=O)cc2Cl)c(F)cc1Cl (stereo not given),117 to 118 °C
2,NC(CC(=O)O)c1ccc(Br)cc1 (stereo not given),234 °C
3,CN1C(=O)C(CCCN2CCN(c3ccc(F)cc3)CC2)Oc2cc3c(cc21)CCCC3 (stereo not given),98 to 98.5 °C
4,O=C(O)c1ccc(-c2ncn(-c3ccc(C(F)(F)C(F)(F)C(F)(F)F)cc3)n2)cc1,225 °C
5,O=C(SC1CCCC1C(=O)N1CCC[C@H]1C(=O)O)c1ccccc1 (stereo not given in full),68 to 70 °C
6,O=C(O)Cc1nn(Cc2nc3cc(F)cc(F)c3s2)c(=O)c2ccccc12,178 °C
7,CCOC(=O)C1=C(N)OC(C)=C(C(=O)OC(C)C)C1c1cccc([N+](=O)[O-])c1 (stereo not given),135 °C
8,COC1CCC(OS(=O)(=O)c2ccc(C)cc2)C(COS(=O)(=O)c2ccc(C)cc2)O1 (stereo not given),110 to 112 °C
9,COc1cccc(Sc2ccnc(Nc3cc(OC)c(OC)c(OCCN4CCCC4)c3)n2)c1,120 to 121 °C
10,O=C1c2ccccc2-n2cnc(-c3noc(CCl)n3)c2[C@@H]2CCN12,205 to 207 °C
11,Cc1cc(I)ccc1OC=C1C=CC=CC1n1nnn(C)c1=O (stereo not given),128 to 130 °C
12,O=C(NCc1ccc(Cl)cc1)c1cn2c3c(cc(CN4CCOCC4)cc3c1=O)OC(c1ccco1)C2 (stereo not given),220 to 222 °C
13,Cc1nc(N)nc(N)c1-c1cccc2ccccc12,224 to 225 °C
14,CC(C)[C@H](N)C(=O)NC(=O)N(CCCl)N=O,115 to 117 °C
15,N#Cc1ccc(N2C(=O)NC3(CCCC3)C2=O)cc1C(F)(F)F,184 to 185 °C
16,CN(O)C(=O)c1ccc(CCCNc2ccc(O)cc2)cc1,152 to 153 °C

row,SMILES,melting point
1,COC(=O)c1ccc2ccc(OC(=S)N(C)C)cc2c1,124 to 126 °C
2,O=c1c2c(CSc3ncnc4[nH]cnc34)cccc2nc(C(F)(F)F)n1-c1ccccc1Cl,218 to 219 °C
3,N#Cc1cc(C(F)(F)F)nn1-c1ccc(NC(=O)c2cccnc2F)cc1,150 to 151 °C
4,CC1(C)CC(=O)Nc2cc3nc(-c4cccc(Cl)c4)[nH]c3cc21,190 to 193 °C
5,COc1ccc([N+](=O)[O-])cc1C=CC1=NC(C)(C)CO1,115 to 116 °C
6,Cc1ncc(O)c(=O)[nH]1,> 300 °C
7,CCCCOc1cc(/C=C(\OCC)C(=O)O)ccc1OCCc1ccc(OS(=O)(=O)CCCC)cc1,96 °C
8,CC(C)(C)c1ccc(C#N)cc1NC(=O)NCc1ccccc1,160 to 161 °C
9,O=C(c1ccc(C2CCCCC2)cc1)N1Cc2cccn2Cc2ccccc21,127 to 129 °C
10,O=C(OCc1ccccc1)N1CCC(O)(C(=O)O)C1 (stereo not given),142 to 144 °C
11,Cc1onc(-c2ccc(Cl)o2)c1-c1ccc(F)cc1,104 to 105 °C
12,CCCCCN1C(=O)CC(c2ccc(C(F)(F)F)cc2)C(C(=O)OCC)C1=O (stereo not given),112 to 115 °C
13,CCOc1nc(C(=O)O)ccc1CN,226 to 228 °C
14,Cn1nc2c(oc3ccccc32)c1NCC(F)(F)F,120 to 121 °C
15,Cn1cncc1C(O)(c1ccc(Cl)cc1)c1ccc2c(c1)C(c1cccc(Cl)c1)SCC(=O)N2CC1CC1 (stereo not given),245 °C
16,CCOC(C)O[C@H]1C(=O)N(C(=O)OCc2ccccc2)[C@H]1c1ccccc1 (stereo not given in full),58 to 60 °C

# Second part, the compound after the results:
row,melting point,SMILES
1,264 to 268 °C,CC(c1oc2ccccc2c(=O)c1-c1cccc(F)c1)n1nc(-c2cnc(N)nc2)c2c(N)ncnc21 (stereo not given)
2,49 to 50 °C,COC(=O)C#CC(=O)c1ccc(Cl)cc1
3,213 to 215 °C,O=Cc1cc(-c2ccccc2)c(=O)n2c1-c1sccc1CC2
4,66 to 67 °C,CC(C)S(=O)(=O)N1CCC2(CC1)OCCO2
5,41 to 42 °C,CCOC(=O)CCCCCCc1ccc2ccccc2c1O
6,160 to 164 °C,O=C(Nc1ccc2cn[nH]c2c1)C(=O)N1CCC(Cc2ccccc2)CC1
7,170 °C,CC(=O)OCCOC(=O)C1=C(C)Nc2nc(N3CCOCC3)nc(N3CCOCC3)c2C1c1cccnc1 (stereo not given)
8,212 to 221 °C,CC(C)(C)c1nc(CO)c[nH]1
9,109 °C,O=C(C=NO)c1cccc(Cl)c1Cl
10,114 to 115 °C,CCOc1nn(Cc2ccnc(OCc3nc(-c4ccccc4)oc3C)c2)cc1CCC(=O)O
11,97 to 98 °C,CN(CCc1ccc([N+](=O)[O-])cc1)C1CCN(c2ccc([N+](=O)[O-])cc2)CC1
12,279 to 281 °C,COc1ccc(Cl)c2oc(-c3ccc(S(N)(=O)=O)cc3)c(-c3ccc(F)cc3)c(=O)c12
13,57 to 59 °C,CC1C(=O)Oc2cc(N3CCCCCC3)ccc21 (stereo not given)
14,117 to 119 °C,O=C1OCCC1Oc1ccc(-c2ccccc2)cc1[N+](=O)[O-] (stereo not given)
15,186 °C,COc1c(Br)c(-c2csc(C(C)C)n2)cc2oc(=O)c(Cl)c(C)c12
16,126 to 128 °C,CC(C)(C)OC(=O)N[C@@H]1C[C@H](CO)[C@@H](O)C1
17,220 to 222 °C,CC(=O)c1cccc(-c2cc3c(=O)n(NS(C)(=O)=O)c(=O)[nH]c3cc2C(F)(F)F)c1
18,164 to 165 °C,CCOC(=O)C(=CC=C(C)C=CC=C(C)C=CC1=C(C)CCCC1(C)C)CC
19,115 to 118 °C,CS(=O)(=O)c1nc(OCc2ccccc2)cc(C(F)(F)F)n1

row,melting point,SMILES
1,74 to 76 °C,C=CCN(CC=C)C(=O)C1=C(C(=O)Nc2cc(OC3CCCC3)c(Cl)cc2F)CCCC1
2,200 to 203 °C,COc1ccc(-n2c3ccccc3c3cc(C=C(C#N)c4cc(F)cc(F)c4)ccc32)cc1
3,70 °C,COc1ccc2nccc(C(=O)CC[C@@H]3CCN(CC#Cc4cc(F)cc(F)c4F)C[C@@H]3C(=O)O)c2c1
4,133 to 134 °C,CCOC(=O)c1ccc(-c2ccc(C#N)cc2)s1
5,150 to 160 °C,CCCc1nc2c(C)cc(C)nc2n1Cc1ccc2oc(-c3ccccc3C(=O)O)nc2c1
6,86 to 87 °C,OC1Cc2ccccc2Sc2cc(Cl)c(F)cc21 (stereo not given)
7,108 to 109 °C,CCCN1CCN(c2cc(-c3ccc(F)cc3F)c3c(n2)CCCCCC3)CC1
8,85 to 87 °C,CC(C)(C)OC(=O)Nc1ccc(C2=CCN(C(=O)OC(C)(C)C)CC2)cc1[N+](=O)[O-]
9,58 to 63 °C,CC(C)(C#N)Cc1cccc(CC(C)(C)C#N)c1
10,139 to 141 °C,Oc1cccc(C2CN=C(c3ccccn3)O2)c1 (stereo not given)
11,182 to 184 °C,Cc1ccc(C(=O)c2c(N)cc(C(=O)O)cc2OCc2ccccc2)cc1
12,87 to 89 °C,CCN(C(=O)OC(C)(C)C)C1CC=C(c2c[nH]c3ccc(N)cc23)CC1 (stereo not given)
13,157 to 158 °C,Cn1cc(CC(=O)O)c(OCCCc2cn(-c3ccc(C(F)(F)F)cn3)nc2C2CCCCC2)n1
14,92 to 93 °C,COc1ccc(SCc2c(C(C)C)nc(C(C)C)c(CO)c2-c2ccc(F)cc2)cc1
15,260 °C,O=C1c2cccc3cc4ccccc4c(c23)C(=O)N1CCCNCCN1C(=O)c2cccc3cc4ccccc4c(c23)C1=O
16,94 to 97 °C,COc1ccc(C2=NN(CCCO)C(=O)[C@H]3CCCC[C@@H]23)cc1OC (relative stereo)
17,63 to 64 °C,Cc1cc(C#N)cc(CC#N)c1
18,162 °C,COc1cccc2c1C(NC1=Nc3ccc(Nc4nnc(C)o4)cc3CO1)CC2 (stereo not given)
19,255 to 257 °C,COc1cc(C(=O)NS(=O)(=O)c2ccccc2C)ccc1Cc1cn(C)c2ccc(C(=O)O)cc12
